Data published in patent US6096725A, “Methods of using αGal oligosaccharides as immune system targeting agents” (Neose Technologies, Inc., priority 1997, dated 2000).
Read-outs that look alike come from different tables or passages of the source.

What was measured:
[1] = system: pig kidney endothelial cell line, PK-15; format: cell-based; details: 240 min
Description: Sera were incubated with serial dilutions of αGal oligosaccharides at 37° C. for 1 hour, then added to αGal-expressing monolayers (pig kidney cells, PK-15) in Terasaki plates for 1 hour at 37° C. Cytotoxicity was mediated by either endogenous complement, or the sera were de-complemented (heat inactivated for 30 minutes at 56° C.) and exogenous (rabbit) complement was added. After washing away excess serum, the viable dye mix "live-dead" (calcein AM/ethidium homodimer (Molecular Probes Inc., Eugene Oreg.)) was added and monolayers were scored for viability by fluorescence microscopy.
The two xenotransplant baboons were outfitted with an indwelling catheter to the femoral vein to infuse compound and a catheter to the femoral artery for blood sampling. Following the transplant procedure, but just prior to providing circulatory access to the xenograft, the oligosaccharide was administered by i.v. pump through the catheter in a 15 min loading dose, followed by continuous 4 hour infusion to achieve 2.5 mM blood concentration (as determined by calculations presented in Table 2). […] Blood specimens collected for plasma were immediately centrifuged and the plasma withdrawn and stored frozen at -20° C. […] Arterial pressure was monitored in the recipient baboon by intermittent automatic cuff recordings.

[2] = system: hyperacute rejection (HAR) of porcine heart xenografted to the neck of a baboon; format: in vivo; details: for Onset of IgG, IgM and complement (C3) deposition at the endothelial surface: immunofluorescence
Source text: Primate model for testing and application of αGal oligosaccharides and dosages thereof. Due to the many similarities between human and baboon immune systems (Neubauer et al., 1981, J. Immunogenetics, 8:433-442; Garver et al., 1980, Cytogenetics & Cell Genetics, 27:238-245; Brodsky et al., 1982, Immunogenetics, 155:151-166; Hammer, C., in Hardy, M. A. (ed.), Xenograft 25, 115-123 (Elsevier, N.Y., 1989); Stark, J. H., et al., Transplantation, 30 52(6):1072-1078 (December 1991); Hammer, C., in Cooper, D. K. C., et al. (eds.), Xenotransplantation, 429-438 (Springer-Verlag 1991)), and because of the large size of baboons, these animals are convenient experimental model recipients of pig organs. These non-human primates also express anti-pig antibodies, and reject pig organs hyperacutely (Lexer et al., 1986, J. Heart Transplant, 4:411-418; Ye, Y., Cooper, D. K. C., in Cooper, D. K. C., et al. (eds.), Xenotransplantation,389-393 (Springer-Verlag 1991); Cooper et al., 1991, J. Heart Transplant, 7:238-246, 1988; Platt et al., 1991, Transplantation, 52(2):214-220). A normal porcine heart was transplanted into the neck of a normal baboon. αGal pentasaccharide was infused (i.v.) to establish and maintain blood oligosaccharide levels predicted to inhibit HAR until infusate was exhausted (See Table 2). The ability of i.v. infused αGal pentasaccharide to block hyperacute rejection (HAR) of porcine heart xenografted to the neck of a baboon was determined and blood levels of αGal oligosaccharide, anti-αGal antibodies, and serum or plasma cytotoxicity toward pig kidney and mouse endothelial cells was monitored and correlated with the onset of HAR.
The heart was excised from the pig donor and transplanted in the neck of the baboon recipient using techniques essentially as described by Cooper et al., 1993, Transplantation, 56:769-777.
The two xenotransplant baboons were outfitted with an indwelling catheter to the femoral vein to infuse compound and a catheter to the femoral artery for blood sampling. Following the transplant procedure, but just prior to providing circulatory access to the xenograft, the oligosaccharide was administered by i.v. pump through the catheter in a 15 min loading dose, followed by continuous 4 hour infusion to achieve 2.5 mM blood concentration (as determined by calculations presented in Table 2). […] Blood specimens collected for plasma were immediately centrifuged and the plasma withdrawn and stored frozen at -20° C. Blood specimens collected for serum were clotted at 4° C. overnight and the withdrawn serum frozen at -20° C. The αGal pentasaccharide was prepared according to the enzymatic methods set forth in example 6.2 and stored as a dry, white, solid powder. The oligosaccharide was dissolved in 250 mL sterile infusion grade saline to a concentration of 0.154 g/mL, or 177 mM. Induction anesthesia was with ketamine hydrochloride 5 mg/kg/body weight in and 0.5 mg/kg of xylazine iv. Intravenous fluid of approximately 20 ml/kg body weight was given during the course of the operative procedure through either a peripheral or central vein. Atropine 0.5 mg/kg was given iv. The larynx was sprayed with 2% lidocaine. Endotracheal intubation was carried out. The endotracheal tube was taped to the maxilla. The pig or baboon was ventilated with a Harvard positive pressure ventilator. Anesthesia was maintained with nitrous oxide 2 L/min and oxygen 1 L/min and 0.2%-1.2% halothane, at a respiratory rate of approximately 10 to 20 breaths per minute depending on the size of the animal. Tidal volume (approximately 20-24 ml/kg) was also adjusted to suit the size of the animal, and the ventilatory pressure was adjusted to approximately […]. Blood gases were checked, and ventilation adjusted as necessary. Arterial pressure was monitored in the recipient baboon by intermittent automatic cuff recordings. […]

[3] = parameters: species or system baboon; details: in vivo
Description: The two xenotransplant baboons were outfitted with an indwelling catheter to the femoral vein to infuse compound and a catheter to the femoral artery for blood sampling. Following the transplant procedure, but just prior to providing circulatory access to the xenograft, the oligosaccharide was administered by i.v. pump through the catheter in a 15 min loading dose, followed by continuous 4 hour infusion to achieve 2.5 mM blood concentration (as determined by calculations presented in Table 2). […] Blood specimens collected for plasma were immediately centrifuged and the plasma withdrawn and stored frozen at -20° C. Blood specimens collected for serum were clotted at 4° C. overnight and the withdrawn serum frozen at -20° C. The αGal pentasaccharide was prepared according to the enzymatic methods set forth in example 6.2 and stored as a dry, white, solid powder. The oligosaccharide was dissolved in 250 mL sterile infusion grade saline to a concentration of 0.154 g/mL, or 177 mM. Induction anesthesia was with ketamine hydrochloride 5 mg/kg/body weight in and 0.5 mg/kg of xylazine iv. Intravenous fluid of approximately 20 ml/kg body weight was given during the course of the operative procedure through either a peripheral or central vein. Atropine 0.5 mg/kg was given iv. […] Arterial pressure was monitored in the recipient baboon by intermittent automatic cuff recordings.

SMILES: CC(=O)N[C@H]1[C@H](O[C@H]2[C@@H](O)[C@@H](CO)O[C@@H](O[C@H]3[C@H](O)[C@@H](O)C(O)O[C@@H]3CO)[C@@H]2O)O[C@H](CO)[C@@H](O[C@@H]2O[C@H](CO)[C@H](O)[C@H](O[C@H]3O[C@H](CO)[C@H](O)[C@H](O)[C@H]3O)[C@H]2O)[C@@H]1O (stereo partly drawn) [αGal pentasaccharide, Galα1-3Galβ1-4GlcNAcβ1-3Galβ1-4Glc]
- Reduction of cytotoxicity of baboon sera against PK-15 [1]: 85-95%
- Onset of IgG, IgM and complement (C3) deposition at the endothelial surface ([2]; first baboon): 1.5 h
- Alteration in blood chemistry ([2]; in vivo): increase in creatinine phosphokinase
- Hematology results ([2]; in vivo): unremarkable
- Xenograft histology ([2]; initial 3 hours of infusion, data not shown): Essentially normal histology
- Onset of IgG, IgM and complement (C3) deposition at the endothelial surface ([2]; second baboon): 3 h
- Xenograft heart beat during infusion ([2]; two baboons, four hour infusion, result in words): an even beat was maintained for the duration of the four hour oligosaccharide infusion
- Time of xenograft excision after cessation of the 4 hour infusion ([2]; two baboons, untreated pig hearts rejected in 5-10 minutes): more than 1 hour
- Blood concentration relative to prediction from earlier pharmacokinetic infusions [3]: approximately twice what was predicted
